The record followed here is patent publication US9586946B2, “Selective immunoproteasome inhibitors with non-peptide scaffolds” (University of Kentucky Research Foundation, priority 2015, dated 2017).

The remaining activity is the signal under treatment as a percentage of the control signal. What is called IC50 is the concentration needed to halve the response being measured. A word on the inhibition: it is the drop in the measured response relative to a control, in per cent.

In assay [1] the target is T1, 20S human immunoproteasome (CT-L activity) (Homo sapiens, UniProt P28062).
T1 construct: purchased Boston Biochem
Kind of assay: Inhibition of CT-L activity of the immunoproteasome (Suc-LLVY-AMC fluorogenic substrate). It is filed as biochemical. The following applies: for inhibition of the CT-L activity of the immunoproteasome: 5 µM; for remaining activity at 5 µM: inhibitor at 5 μM, remaining enzyme activity, read-out: % IP activity (remaining activity of the enzyme); for IC50: unit inferred, read-out: IC50 values against the immunoproteasome. The protocol:
(§1) The computationally selected 13 compounds were tested for their inhibitory activity against the CT-L activity of the immunoproteasome. The identified active compounds were also tested for their inhibitory activity against the CT-L activity of the constitutive proteasome. For the initial activity screening, the selected compounds were dissolved in DMSO and used at a concentration of 5 μM. Epoxomicin ([…]), which reached the 100% inhibition, was used as a positive control. 20S human immunoproteasome and constitutive proteasome (Boston Biochem) were 2-fold diluted in an assay buffer (20 mM Tris/Cl, pH 8.0, 0.5 mM EDTA, 0.035% SDS).^17
(§2) Specifically, selected compounds were preincubated with 50 ng/well of the immunoproteasome or constitutive proteasome in a 96-well plate at room temperature for 13 min. 100 μM of Suc-LLVY-AMC, a fluorogenic peptide substrate for the CT-L activity, was then added to the wells. Fluorogenic signals of the free AMC (Ex: 360, Em: 460)^18 were recorded for 90 min. The initial reaction velocities (RFU/min) of each compound were calculated as a percentage of the positive control. All enzyme activity assays were carried out in triplicate.

The target in assay [2] is T2, 20S human constitutive proteasome (CT-L activity) (Homo sapiens, UniProt P28074).
T2 construct: purchased Boston Biochem
Kind of assay: Inhibition of CT-L activity of the constitutive proteasome (Suc-LLVY-AMC fluorogenic substrate). The following applies: inhibitor at 5 μM; remaining enzyme activity; read-out: % CP activity (remaining activity of the enzyme). It is filed as biochemical. The protocol: as §1, §2

Where a SMILES comes first, the peptide text is derived from it.

In the case of `Cc1ccc(-c2cc(C(=O)NC[C@@H]3CCCO3)c3cc(CNS(=O)(=O)c4cccc(Cl)c4)ccc3n2)o1` [Compound 1], in assay [1] (compound at 5 μM, % inhibition), the “inhibition of the CT-L activity of the immunoproteasome” value is given as 85%. Further, in assay [1], the remaining activity at 5 µM stood at 15% and the half-inhibitory concentration (IC50) was 1.7 µM. Besides, the remaining activity at 5 µM in assay [2] was 80%.
In assay [1] (compound at 5 μM, % inhibition), `CCC[C@H]1C[C@H](C(=O)N[C@@H]([C@@H]2O[C@H](SC)[C@@H](O)[C@@H](O)[C@@H]2O)[C@@H](C)O)[N@@H+](C)C1` [Compound 2] showed an inhibition at 5 µM of 36 to 85%. Also, in assay [1], the remaining activity at 5 µM came out at 64% and the IC50 was determined as 22 µM. In addition, the remaining activity at 5 µM in assay [2] came out at 98%.
For `Cc1ccc(CSC[C@@H](NC(=O)c2cc(-c3ccccc3)nc3ccccc23)C(=O)NCCCN2CCCC2=O)cc1` [Compound 3], in assay [1] (compound at 5 μM, % inhibition), the “inhibition of the CT-L activity of the immunoproteasome” value worked out at 62%. Further, in assay [1], the remaining activity at 5 µM stood at 38% and the IC50 is 4.9 µM. Besides, in assay [2], the remaining activity at 5 µM was found to be 85%.
Turning to `CCCCc1ccc2nc(-c3ccc(OC)cc3)cc(C(=O)NC[C@@H](C)C(=O)N3CCC[C@@H]3CO)c2c1` [Compound 4], the figures for the remaining activity at 5 µM in assay [1] and in assay [2] were 79% and 98%, respectively.
Taken in the same sequence, the figures for `N=C(N)NCCC[C@@H]1NC(=O)[C@H](Cc2ccccc2)NC(=O)[C@@H](Cc2ccc(O)cc2)NC(=O)CNC(=O)[C@@H](Cc2c[nH]c3ccccc23)NC1=O` [Compound 5] (HELM PEPTIDE1{F.R.[dW].G.[dY]}$PEPTIDE1,PEPTIDE1,1:R1-5:R2$$$V2.0) were 81% and 82%.
Taken in the same sequence, the figures for `CC[C@H](C(=O)C(=O)NCCCN1CCOCC1)N1CC(C)C[C@@H](NC(=O)OCc2ccccc2)C1=O` (stereo partly drawn) [Compound 6] were 86% and 94%.
The corresponding values for `NC(=O)CC[C@H](NC(=O)[C@H](Cc1cnc[nH]1)NC(=O)OCC1c2ccccc2-c2ccccc21)C(=O)N1CCC[C@H]1C(=O)O` [Compound 7] (HELM PEPTIDE1{[O=C(OCC1c2ccccc2-c2ccccc21)[*:2]].H.Q.P}$$$$V2.0) are 65% and 76%.
Turning to `CCOc1ccc2[nH]c3c(c2c1)CC(C(=O)NCC1CCCCC1)N[C@@H]3c1ccc(O)c([N+](=O)[O-])c1` (stereo partly drawn) [Compound 8], the values for the remaining activity at 5 µM in assay [1] and in assay [2] were 90% and 106%, respectively.
The corresponding values for `O=C(C[C@@H]1CCN(CC2CC2)C[C@@H]1[C@H]1CC(c2ccccc2Cl)=NO1)NCCc1ccccn1` [Compound 9] are 87% and 86%.
The corresponding values for `CCN1CCN(CCCN2C(=O)C3[C@H](C(=O)Nc4cc(C)cc(C)c4)[C@@H]4C=C[C@]3(O4)[C@H]2C(=O)N[C@@H]2CCC[C@H](C)[C@H]2C)CC1` (stereo partly drawn) [Compound 10] are 82% and 85%.
The corresponding values for `COc1ccc(-c2cc(C(=O)N[C@H](CCC(=O)OC3CCCCC3)C(=O)NCCc3ccncc3)c3ccccc3n2)cc1C` [Compound 11] are 80% and 80%.
As for `CC[C@@H](O)CNC(=O)C[C@@H]1CCN(Cc2ccc(C)s2)C[C@@H]1[C@H]1CC(c2ccccc2OC)=NO1` [Compound 12], the remaining activity at 5 µM is 69% in assay [1] and 72% in assay [2].
Consider `COc1ccccc1C(=O)N/C(=C/c1ccc(Br)cc1)C(=O)Nc1ccc(S(=O)(=O)/N=c2\[nH]ccs2)cc1` [Compound 13], for which the results for the remaining activity at 5 µM in assay [1] and in assay [2] were 91% and 88%, respectively.
Taken in the same sequence, the figures for `CCN(CC)CCNC(=O)[C@H](Cc1ccc(OCc2ccccc2)cc1)NC(=O)CCC(=O)c1ccccc1` [Compound 14] were 70% and 76%.
The corresponding values for `O=C(CC[C@H](NC(=O)c1cc(-c2ccoc2)nc2ccccc12)C(=O)NCc1cc(F)ccc1F)OC1CCCCC1` [Compound 15] are 74% and 80%.
As for `Cc1ccc(OS(=O)(=O)c2cccc(C(F)(F)F)c2)c(-c2cc(-c3ccccc3)n(CCN[C@@H]3CCNC3)n2)c1` [Compound 16], the figures for the remaining activity at 5 µM in assay [1] and in assay [2] were 42% and 50%, respectively.
The corresponding values for `C=C(CCCc1ccccc1)N[C@@H](Cc1ccc(Cl)cc1)C(=O)N[C@H](Cc1ccccc1)C(=O)N[C@H](CCCNC(=N)N)C(=O)N[C@@H](Cc1c[nH]c2ccccc12)C(N)=O` [Compound 17] are 42% and 41%.
Taken in the same sequence, the figures for `O=C1CN(/N=C/c2ccc(-c3ccc(Cl)cc3)o2)C(=O)N1CCCCN1CCN(C[C@@H](O)c2ccccc2)CC1` [Compound 18] were 75% and 84%.
As for `Cc1cccc(Nc2ccccc2C(=O)N[C@H](CC[S@+](C)[O-])C(=O)N[C@H](C)c2ccc(F)cc2)c1C` [Compound 19], the values for the remaining activity at 5 µM in assay [1] and in assay [2] were 69% and 67%, respectively.
On to `CC[C@H](C)[C@H](NC(=O)[C@H]([C@@H](C)CC)N(C)C(C)=O)C(=O)N[C@H](C(=O)N[C@@H](CC(C)C)C(=O)[C@@]1(C)CO1)[C@@H](C)O` [Epoxomicin, reference compound], for which the “inhibition by positive control” value in assay [1] (Epoxomicin at 1 tM (so in the source), positive control) is listed as 100%.
